Reference: patent publication US20050089535A1, “Delivery of biologically active agents” (priority 2002, published 2005)

Test: Use of the Weston needleless injector to evaluate penetration of the cervix (dye track)
Parameters: species or system human
Details: 0.2 ml of 1 mg/ml methylene blue in phosphate buffered saline, Weston needleless injector held against ectocervix, ex vivo cervix from non-pregnant women
Procedure: A Weston needleless injector was loaded with 0.2 ml of dye (1 mg/ml of methylene blue {Sigma} in phosphate buffered saline). Whole human cervix was obtained at hysterectomy from non-pregnant women of reproductive age. The cervix was tested within 30 minutes of removal from the patient. The needleless injector device was held against the ectocervix region. Increased pressure on the needleless injector activated the device. Two injections were performed for each specimen.
The cervix was dissected along the track of the injection (FIG. 2) and the length of the dye track was measured. In four experiments the length of the track was a mean of 6.1 mm (standard error of the mean=1.9 mm). The mean lateral spread (any signs of the blue dye) was 8.8 mm.

- mean lateral spread (any signs of the blue dye): 8.8 mm
- length of the dye track (mean) (four experiments, SEM 1.9 mm): 6.1 mm
Structure (SMILES): CN(C)c1ccc2nc3ccc(=[N+](C)C)cc-3sc2c1 [dye, methylene blue]
